Test results: patent US20030017567A1, “Biological sample processing methods and compositions that include surfactants” (3M Innovative Properties Company, priority 2001, published 2003)
Marks after values point to notes of the source that are not given here.

How the values were obtained:
[1] = biological target: T1, AMPLITAQ DNA polymerase (Taq polymerase) (Thermus aquaticus, UniProt P19821); assay: PCR amplification of PERV protease fragment (327 bp) in presence of dye/surfactant; product on agarose gel or quantitated with Agilent 2100 Bioanalyzer; format: biochemical
T1 construct: purchased Applied Biosystems, Foster City, Calif
Procedure: Typically, a fresh stock solution of 5 milligrams (mg) of a water-insoluble near-infrared dye (NIR dye) was dissolved in 50 microliters (μL) of dimethylsulfoxide (DMSO) and brought up in water to a final volume of 1 milliliter (mL). This was then diluted out to various concentrations of dye. The diluted dye (typically 0.2 mg/mL) was then added to a surfactant solution (typically 4 wt-%) to form a complex. The complex was added to a PCR reaction.
PCR reactions were set up for a conserved sequence (327 bp) in the protease region of the genome of porcine endogenous retrovirus using a plasmid containing the PERV protease fragment, a forward primer and a reverse primer designed using a primer express program from Applied Biosystems, and AMPLITAQ DNA polymerase cocktail (commercially available from Applied Biosystems, Foster City, Calif.) and cycled in a thermocycler (9700, Applied Biosystems). The PCR reactions were typically carried out in 25-μL volumes. The NIR dye/surfactant mixture was added to the PCR cocktail to give the desired concentration of dye and surfactant in a total volume of 25 μL. A typical PCR cocktail contains 10x buffer, 2.5 μL; dNTPs, 2.0 μL (200 μM of each); forward primer, 0.5 μL (200 nM); reverse primer, 0.5 μL (200 nM); template DNA, 1.0 (1 ng/μL); Amplitaq, 0.25 μL (1.25 units); sterile water, 18.25 μL.
The products of PCR reactions were run on 1% agarose gel containing ethidium bromide and visualized using an ALPHA IMAGER (Alpha Innotech Corp., San Leandro, Calif.). […] However, a higher concentration of dye (0.1 mg/mL) for effective heating was needed. Thus, for all further PCR experiments, a dye concentration of 0.1 mg/mL or higher was used. […] Taq polymerase was tested from different manufacturers (Promega Corp., Madison, Wis.; Roche Biochemicals, Indianapolis, Ind.; Eppendorf, Scientific Inc., Westbury, N.Y.; Sigma, St. Louis, Mo.) and all the Taq polymerases were inhibited by 785 WS and SDA 8080.
In order to find out the optimum concentration of surfactant for PCR with NIR dye (785 WS and SDA 8080), the surfactant concentration in PCR reaction was varied from 0.1 wt-% to 4 wt-%. The PCR product formed was quantitated using DNA 7500 Labchip kit in Agilent 2100 Bioanalyzer (Agilent Inc, Paloalto, Calif.). The results shown in Table 3 indicate that increasing the concentration of surfactant relative to dye assists in the formation of PCR product.
A variety of dyes (NIR dyes such as IR782, IR768, SDA 2141, SDA8327, IR 830 WS, fluorescent dyes like oligreen and visible dyes like dichlorophenol, indophenol, saffranin, crystal violet, and commercially available food coloring) at typical concentrations of 0.1 or 0.2 mg/mL were allowed to interact with 4 wt-% PLURONIC F127 and each mixture was added to the PCR cocktail. The reaction was set up to amplify PERV protease fragment as described in Example 2 and the products of the reaction were analyzed by agarose gel electrophoresis.

T4 DNA ligase = biological target: T2, T4 DNA ligase (Enterobacteria phage T4, UniProt P00970); assay: DNA ligation reaction, read out by E. coli DH10B transformant colonies and by PCR of ligated products; format: biochemical; conditions: 4 wt-% PLURONIC for 785 WS; 4 wt-% TWEEN-20 for SDA 8080; similar number of colonies as control
T2 construct: purchased Life Technologies, Inc, Gaithesburg, Md
T2 sequence (P00970 1-487): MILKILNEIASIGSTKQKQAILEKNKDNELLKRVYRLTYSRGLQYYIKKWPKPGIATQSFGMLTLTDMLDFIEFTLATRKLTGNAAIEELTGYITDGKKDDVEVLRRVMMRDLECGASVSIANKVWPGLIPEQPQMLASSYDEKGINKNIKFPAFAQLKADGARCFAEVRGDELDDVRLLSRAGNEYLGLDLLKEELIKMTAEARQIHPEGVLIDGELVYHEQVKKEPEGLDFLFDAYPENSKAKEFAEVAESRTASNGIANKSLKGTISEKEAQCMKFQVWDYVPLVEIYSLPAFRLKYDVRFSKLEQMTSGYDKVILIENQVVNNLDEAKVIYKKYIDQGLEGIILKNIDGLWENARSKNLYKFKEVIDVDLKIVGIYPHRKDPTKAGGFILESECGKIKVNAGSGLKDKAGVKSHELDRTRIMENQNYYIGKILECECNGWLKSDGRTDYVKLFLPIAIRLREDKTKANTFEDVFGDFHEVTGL
Procedure: DNA ligation reactions were set up using T4 DNA ligase (Life Technologies, Inc, Gaithesburg, Md.) using a linearized plasmid template (pET21a, Novagen, Madison, Wis.) and a DNA insert. The reagents were used according to manufacturer's instructions. Escherichia coli DH10B competent cells were transformed with the ligated products and transformed cells were plated on Clondisc (Clontech, Palo Alto, Calif.) with appropriate antibiotic (ampicillin at 50 μg/mL). After incubation of plates at 37° C. for 16 hours to 18 hours, the resulting colonies were counted and analysed for plasmid by miniprep and restriction digest. […] In addition, all of the plasmids isolated from these plates contained the same insert as verified by restriction digest and DNA sequencing.
In addition to transformation and plating with the ligation mix, the ligated products were used as DNA template in a PCR reaction containing primers flanking the insert DNA on the plasmid template (T7 promoter and T7 terminator primers, Novagen).

Taq polymerase = Taq polymerase (Thermus aquaticus, UniProt P19821); assay: Quantitative PCR using TaqMan probes or Sybr green; format: biochemical; conditions: with SDA 8080 0.2 mg/mL or 785 WS 0.1 mg/mL, both cases
[2] = Laser stability / photobleaching of dye solution on repeated laser exposure; format: physicochemical; conditions: SDA 8080 (0.2 mg/mL), surfactant 20 wt %; 25 exposures
Procedure: An 813-nm diode laser source at 1.2W (1.9A) (Opto Power Corp., Tucson, Ariz. ) was used to heat a 10μL volume of near-IR dye at a concentration (0.1 mg/mL for 785 WS, 0.2 mg/iL for SDA 8080) to yield a 35° C. rise in temperature. The laser was manually turned on long enough for the temperature in a 10-μL well to increase by 35° C. (1-3 seconds) and was manually turned off when that level was attained. The temperature data was obtained using a thermocouple in the well, and the transmittance data was obtained via a power meter whose signals were digitized and graphically interpreted.
In another experiment, the 10 μL well was used to see if the dye/surfactant mixture could withstand laser cycling over a period of 30 cycles. The laser power was systematically varied from 60° C. to 94° C., 30 times.
Unlike in Example 8, some dyes and dye/surfactant complexes undergo photodegradation when exposed to laser beam. […] Specifically, in the case of 785 WS/BRIJ-97, the addition of ascorbic acid (typically 5 mg/mL) helped reduce the amount of photobleaching from 100% to 20% after 30 cycles. In some circumstances, rapid/controlled photodegradation may be desired. […] This would allow DNA tags (fluorescent or vis/IR) to be monitored at the end of the PCR reaction.
Vitamin E-TPGS has both surfactant as well as antioxidant properties.

T1 sequence (P19821 whole entry, the tested form may be a part): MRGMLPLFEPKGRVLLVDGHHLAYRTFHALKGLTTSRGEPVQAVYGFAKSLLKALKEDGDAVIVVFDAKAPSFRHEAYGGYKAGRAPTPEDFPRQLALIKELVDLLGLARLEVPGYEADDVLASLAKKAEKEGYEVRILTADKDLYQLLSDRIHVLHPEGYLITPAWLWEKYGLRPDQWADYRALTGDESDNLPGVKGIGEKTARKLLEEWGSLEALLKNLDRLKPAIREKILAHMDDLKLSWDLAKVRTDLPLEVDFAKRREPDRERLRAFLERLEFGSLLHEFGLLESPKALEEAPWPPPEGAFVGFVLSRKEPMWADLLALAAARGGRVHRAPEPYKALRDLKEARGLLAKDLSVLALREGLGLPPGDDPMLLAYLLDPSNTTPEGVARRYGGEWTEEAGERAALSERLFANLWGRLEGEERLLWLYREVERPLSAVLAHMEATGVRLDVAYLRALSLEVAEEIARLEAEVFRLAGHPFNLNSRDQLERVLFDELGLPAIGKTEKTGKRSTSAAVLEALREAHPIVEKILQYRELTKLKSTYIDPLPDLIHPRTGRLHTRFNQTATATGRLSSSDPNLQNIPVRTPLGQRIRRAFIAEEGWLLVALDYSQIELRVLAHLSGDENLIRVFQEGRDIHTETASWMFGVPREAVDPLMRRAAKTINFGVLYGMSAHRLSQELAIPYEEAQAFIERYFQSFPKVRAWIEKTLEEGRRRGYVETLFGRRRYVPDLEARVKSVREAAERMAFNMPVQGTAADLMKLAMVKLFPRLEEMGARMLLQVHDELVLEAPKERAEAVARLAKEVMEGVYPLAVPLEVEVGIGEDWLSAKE
Taq polymerase, sequence (P19821 whole entry): as the sequence (P19821 whole entry, the tested form may be a part) above

For `CCCCCCCCCCCC(=O)OCCOCCOCCOCCOCCOCCOCCOCCOCCOCCOCCOCCOCCOCCOCCOCCOCCOCCOCCOCCOCC(OCCOCCOCCOCCOCCOCCOCCOCCOCCOCCOCCOCCOCCOCCOCCOCCOCCOCCOCCOCCO)C1OCC(OCCOCCOCCOCCOCCOCCOCCOCCOCCOCCOCCOCCOCCOCCOCCOCCOCCOCCOCCOCCO)C1OCCOCCOCCOCCOCCOCCOCCOCCOCCOCCOCCOCCOCCOCCOCCOCCOCCOCCOCCOCCO` (stereo not shown) [TWEEN-20, Polyoxyethylene (20) sorbitan monolaurate], the “PCR Product” value ([1]; 785 WS 0.1 mg/mL, surfactant 0.1 wt %) was 0 ng/µL, the “PCR Product” value ([1]; 785 WS 0.1 mg/mL, surfactant 0.5 wt %) was 12.7 ng/µL and the “PCR Product” value ([1]; 785 WS 0.1 mg/mL, surfactant 1 wt %) was 19 ng/µL. The “PCR Product” value ([1]; 785 WS 0.1 mg/mL, surfactant 2 wt %) was 23.7 ng/µL, the “PCR Product” value ([1]; 785 WS 0.1 mg/mL, surfactant 4 wt %) was 24 ng/µL and the “PCR Product” value ([1]; SDA 8080 0.2 mg/mL, surfactant 0.1 wt %) was 27 ng/µL. For the same compound, the “PCR Product” value ([1]; SDA 8080 0.2 mg/mL, surfactant 0.5 wt %) was 29 ng/µL, the “PCR Product” value ([1]; SDA 8080 0.2 mg/mL, surfactant 1 wt %) was 31 ng/µL and the “PCR Product” value ([1]; SDA 8080 0.2 mg/mL, surfactant 2 wt %) was 22 ng/µL. For the same compound, the “PCR Product” value ([1]; SDA 8080 0.2 mg/mL, surfactant 4 wt %) was 19 ng/µL, the “effect of addition of surfactant on dye-inhibited Taq polymerase” value ([1]; Taq polymerases inhibited by 785 WS and SDA 8080) was “restored the activity of the enzyme” and the “PCR Product” value ([1]; surfactant 4 wt %, 785 WS 0 mg/mL (no dye), data from a different experiment under identical PCR conditions) was 28* ng/μL. The “PCR Product” value ([1]; surfactant 4 wt %, SDA 8080 0 mg/mL (no dye), data from a different experiment under identical PCR conditions) was 28* ng/μL, the “effect of surfactant on dye-inhibited ligase activity (colonies)” value (T4 DNA ligase) was “restored the activity of ligase” and the “effect of addition of surfactant on dye-inhibited quantitative PCR assay” value (Taq polymerase) was “restored the activity of the assay”. For the same compound, the “Laser Stability” value [2] was “+ (less than a 20% degradation in dye absorbance over a period of 25 exposures)”.
